The source of these data is ChEMBL document CHEMBL5230122, “Natural products and other inhibitors of F1FO ATP synthase” (Eur J Med Chem, 2020).

Converted amounts (≈) assume the structure as drawn.

The nature of data set [1]: Inhibition of yeast mitochondrial F0F1-ATPase assessed as inhibition constant measured after 20 mins in presence of NADH and ATP by microplate reader analysis. The format is mitochondria, Saccharomyces cerevisiae, Mitochondria.
Data set [2] relates to A549. The experiment in a line: Antiproliferative activity against human A549 cells assessed as decrease in cellular ATP content and measured after 2 days by CellTiter-Glo luminescent assay. The format is functional, cell-based. The conditions noted are these: A549, 48 h. (In general: ATP-based viability assays read luminescence as a measure of living cells.)
The subject of another data set is K562. The experiment in a line: Antiproliferative activity against human K562 cells assessed as decrease in cellular ATP content and measured after 2 days by CellTiter-Glo luminescent assay. The format is functional, cell-based. The conditions noted are these: K562, 48 h.
The nature of data set [3]: Inhibition of bovine heart mitochondrial F0F1-ATP synthase incubated for 15 mins by colorimetric assay. The format is mitochondria, Bos taurus, Mitochondria.
The next data set deals with KB-V1. The experiment in a line: Antiproliferative activity against human KB-V1 cells assessed as decrease in cellular ATP content and measured after 2 days by CellTiter-Glo luminescent assay. The format is functional, cell-based. As to conditions: KB-V1, 48 h.
Data set [4] is described as follows: Inhibition of yeast mitochondrial F0F1-ATPase incubated for 15 mins by colorimetric assay. In kind it is mitochondria, Saccharomyces cerevisiae, Mitochondria.
Data set [5] can be described thus: Cytotoxicity against mouse L929 cells assessed as reduction in cell viability. In kind it is toxicity, cell-based.
In the next data set the test system is U-937. The experiment in a line: Antiproliferative activity against human U-937 cells assessed as decrease in cellular ATP content and measured after 2 days by CellTiter-Glo luminescent assay. The format is functional, cell-based. The conditions noted are these: U-937, 48 h.
Another data set concerns KB 3-1. The experiment in a line: Antiproliferative activity against human KB-3-1 cells assessed as decrease in cellular ATP content and measured after 2 days by CellTiter-Glo luminescent assay. The format is functional, cell-based. As to conditions: KB 3-1, 48 h.
A further data set relates to SK-OV-3. The experiment in a line: Antiproliferative activity against human SK-OV-3 cells assessed as decrease in cellular ATP content and measured after 2 days by CellTiter-Glo luminescent assay. In kind it is functional, cell-based. The conditions noted are these: SK-OV-3, 48 h.
The subject of another data set is A498. The experiment in a line: Antiproliferative activity against human A498 cells assessed as decrease in cellular ATP content and measured after 2 days by CellTiter-Glo luminescent assay. In kind it is functional, cell-based. As to conditions: A498, 48 h.
Data set [6] has as its system P388. The experiment in a line: Anticancer activity against mouse P388 cells assessed as reduction in cell viability incubated for 48 hrs by sulforhodamine B (SRB) assay. The format is functional, cell-based. As to conditions: P388, 48 h. (In general: In SRB staining, fixed cells bind dye roughly in proportion to their protein.)
Data set [7] deals with P388. The experiment in a line: Anticancer activity against mouse P388 cells assessed as reduction in cell viability incubated for 96 hrs by MTT assay. The format is functional, cell-based. As to conditions: P388, 96 h. In general terms: Formazan colour is commonly taken as a measure of viable cells.
The test system of data set [8] is MCF7. The experiment in a line: Anticancer activity against human MCF7 cells assessed as reduction in cell viability incubated for 48 hrs by sulforhodamine B (SRB) assay. The format is functional, cell-based. As to conditions: MCF7, 48 h.
The next data set concerns MDA-MB-231. The experiment in a line: Anticancer activity against human MDA-MB-231 cells assessed as reduction in cell viability incubated for 72 hrs by MTT assay. The conditions noted are these: MDA-MB-231, 72 h. In kind it is functional, cell-based.
Data set [9] relates to MCF7. The experiment in a line: Anticancer activity against human MCF7 cells assessed as reduction in cell viability incubated for 72 hrs by MTT assay. The format is functional, cell-based. The conditions noted are these: MCF7, 72 h.
The test system of another data set is PaTu 8988t. The experiment in a line: Anticancer activity against human PaTu 8988t cells assessed as reduction in cell viability incubated for 72 hrs by MTT assay. The format is functional, cell-based.
Another data set has as its system HeLa. The experiment in a line: Anticancer activity against human HeLa cells assessed as reduction in cell viability incubated for 72 hrs by MTT assay. In kind it is functional, cell-based.
For data set [10], the system named is A549. The experiment in a line: Anticancer activity against human A549 cells assessed as reduction in cell viability incubated for 72 hrs by MTT assay. As to conditions: A549, 72 h. In kind it is functional, cell-based.

Usually Ki stands for the dissociation constant of the complex between target and ligand, obtained from inhibition or displacement. One may read the IC50 as the point on the concentration scale where inhibition reaches its midpoint.

`COC[C@@H](C[C@H]1O[C@@](O)([C@@H]2OC(=O)/C(C)=C/C(C)=C/C(C)=C/[C@@H](C)[C@H](O[C@@H]3O[C@@H](C)[C@H](OC)[C@@H](O)[C@@H]3O)/C=C/C(C)=C/CC[C@H](O)[C@@H](OC)C[C@@H]2O)[C@H](C)[C@@H](O)[C@H]1C)O[C@H]1C[C@](C)(O)[C@@H](O[C@H]2C[C@@H](OC)[C@H](O)[C@@H](C)O2)[C@H](C)O1`: the inhibitory constant (Ki) in data set [1] is 17000 nM.
For the compound `CCC[C@H](O)[C@@H](C)C(=O)NC/C=C\C[C@@H](C)[C@@H](O)[C@H](C)[C@@H]1C/C=C\C[C@H](C)[C@H](O)Cc2cc(OC)cc(O)c2C(=O)O1`, the 50% inhibitory concentration (IC50) with A549 [2] was determined as 0.4 ng/mL (≈ 0.678 nM); with K562 it was 0.6 ng/mL (≈ 1.02 nM); in data set [3] it was 15 nM; with KB-V1 it was 0.6 ng/mL (≈ 1.02 nM); in data set [4] it was 15 nM; in data set [5], 1.2 ng/mL (≈ 2.03 nM). The IC50 in the data set on U-937 is 0.1 ng/mL (≈ 0.17 nM); in the data set on KB 3-1 it was 0.3 ng/mL (≈ 0.509 nM); in the data set on SK-OV-3, 1 ng/mL (≈ 1.7 nM); in the data set on A498, 0.4 ng/mL (≈ 0.678 nM).
In the case of `CC/C(C)=C(\NC(=O)[C@@H](NC(=O)CC(=O)[C@@H](C)CC(C)C)[C@](C)(O)CC)C(=O)N[C@@H](C)C(=O)N/C(C(=O)N[C@@H](C(=O)N[C@@H](C(=O)N[C@@H](C(=O)N[C@H](C(=O)N/C(C(=O)N[C@H](C)C(=O)N[C@@H](C(=O)N[C@H](C(=O)NC(C(=O)N[C@H](CN(C)C)C(C)C)=C(C)C)C(C)C)C(C)C)=C(\C)CC)C(C)(C)O)C(C)(C)O)[C@@H](C)CC)C(C)C)=C(\C)CC`, the values for the IC50 in the data set on P388 [6], in the data set on P388 [7] and with MCF7 [8] were 10 nM, 0.51 nM and 10 nM, respectively.
On to `CCC(C)[C@H](NC(=S)[C@@H](NC(=O)C(C)O)C(C)C)C(=O)NCC(=O)N[C@@H](Cc1ccccc1O)C(=S)N[C@@H](C)C(=S)N[C@H](C(=O)N[C@H]1C(=O)N[C@@H]([C@@H](C)CC)C(=O)N[C@@H](C)C(=O)N[C@@H](C(C)C)C(=O)N[C@@H](Cc2cn(C)c[n+]2C)C(=O)N/C=C\SC1C)C(C)C` (some centres undefined), for which the IC50 stood at 72 nM in the data set on MDA-MB-231; 59 nM in the data set with MCF7 [9]; 65 nM in the data set on PaTu 8988t; 50 nM in the data set with HeLa; 48 nM in the data set with A549 [10].
